We go through 3 compounds from paper PMC8404199, “Structure–Activity Relationships of Triple-Action Platinum(IV) Prodrugs with Albumin-Binding Properties and Immunomodulating Ligands” (Journal of Medicinal Chemistry, 2021).

Where two headings read alike, the source gives them in different places.

In one data set the test system is human SKOV3 cancer cells. Briefly: MTT cytotoxicity assay in SKOV3 cells. It is filed as cell-based. The note with it: 72 h incubation. The protocol:
(§1) The cells were seeded at 3500–6000 cells/well in 96-well plates depending on the proliferation rate of the respective cell line and allowed to recover for 24 h. Subsequently, the cells were treated at indicated concentrations for 48 or 72 h. Cells were additionally incubated with 5-fold equimolar concentrations of ascorbic acid to increase the reduction rate of the compounds. Cell viability was measured by the MTT-based vitality assay (EZ4U; Biomedica, Vienna, Austria), following the manufacturer’s recommendations.
In general terms: Tetrazolium dyes change colour on reduction, which living cells bring about.

A further data set concerns SKOV3 cancer cells. Briefly: Long-term cytotoxicity assay (crystal violet) in SKOV3 cells. It is filed as cell-based, human. The conditions noted are these: 168 h, crystal violet stain, mean ± SD. On the procedure: SKOV3 cells were seeded in duplicates at 5000 cells/well in 24-well plates and allowed to recover for 24 h. Subsequently, the cells were treated at the indicated concentrations for 168 h. Cells were fixed with ice-cold methanol (20 min at 4 °C), washed with PBS, and stained with crystal violet. Subsequently, colony formation was inspected, and the fluorescence signal was detected using Typhoon Trio imager (GE Healthcare, Little Chalfont, UK) at 610/30 nm BP and analyzed by ImageJ software.

In data set [1] the test system is human hepatic cell line (WRL68). Nature of the data set: MTT cytotoxicity assay in non-malignant WRL68 cells. The conditions noted are these: 72 h. It is filed as cell-based. On the procedure: as §1
Data set [2] relates to murine CT26 colon cancer cells. Briefly: MTT cytotoxicity assay in CT26 cells. It is filed as cell-based. The protocol: (§2) Cells were additionally incubated with 5-fold equimolar concentrations of ascorbic acid to increase the reduction rate of the compounds. Cell viability was measured by the MTT-based vitality assay (EZ4U; Biomedica, Vienna, Austria), following the manufacturer’s recommendations.

Data set [3] concerns VM7 melanoma cancer cells. Briefly: MTT cytotoxicity assay in VM7 cells. The note with it: 72 h. In kind it is cell-based, human. The protocol: as §1
The test system of the next data set is SKOV3 cell lysates. Nature of the data set: Reduction and 1-MDT release in SKOV3 lysates. It is filed as in vitro ADME, human. The conditions noted are these: 100 μM, 37 °C. On the procedure:
SKOV3 cells were grown in four T225 […] cell culture flasks to reach a high cell number. On the day of cell lysate isolation, cells were washed with PBS, scraped from the surface, and centrifuged. Each cell pellet was lysed in ∼160 μL lysis buffer (15 mM NaCl 0.5% Triton X, ultrapure) and incubated on ice for 1 h. The samples were then centrifuged for 15 min at 14,000 rpm (4 °C), and the cleared lysate was pooled and kept at −80 °C until analysis. Cell lysates were treated with 2 mM stock solutions of respective complexes in 4% DMF and phosphate buffer (100 mM, pH 7.4) to obtain a final compound concentration of 100 μM and incubated at 37 °C. After 0, 4, 24, and 72 h, three volume equivalents of cold MeOH were added to sample aliquots. Samples were stored at 4 °C for 10 min and centrifuged (15,080g, 4 °C, 10 min). LC–MS analysis of the supernatant was performed on an Agilent 1260 Infinity system using a Waters Atlantis T3 column (150 mm × 4.6 mm) and absorption detection at 230 nm, coupled to a Bruker amaZon SL ESI-IT mass spectrometer. Milli-Q water, containing 0.1% formic acid, and acetonitrile, containing 0.1% formic acid, were used as eluents. A gradient of 1–99% acetonitrile in 20 min was used.

Data set [4] can be described thus: log D7.4 determination by shake flask method and ICP-MS. It is filed as physicochemical. The conditions noted are these: n-octanol/phosphate buffer pH 7.4, Pt by ICP-MS. The protocol:
50 mM stock solutions of the succinimide complexes in DMF were diluted in phosphate buffer (20 mM, pH 7.4, pre-saturated with n-octanol) to a final concentration of 50 μM drug and 0.1% DMF. The platinum content of these aqueous solutions was measured by ICP–MS (see above). The solutions were mixed 1:1 with n-octanol and shaken on a 360° rotatable rack for 3 h. The solutions were centrifuged for 5 min (860g, RT), the aqueous layers were carefully removed, and their Pt content was measured by ICP–MS. Experiments were performed and measured in duplicates, and averages were used for further calculations. log D7.4 values were calculated by the following equation [drawing 1]

The subject of data set [5] is human HCT116 colon cancer cells. Nature of the data set: MTT cytotoxicity assay in HCT116 cells. In kind it is cell-based. On the procedure: as §2
For data set [6], the system named is human embryonic kidney cells (HEK293). Nature of the data set: MTT cytotoxicity assay in non-malignant HEK293 cells. In kind it is cell-based. The note with it: 72 h. The protocol:
as §1

Data set [7] can be described thus: UHPLC reduction experiments with L-ascorbic acid. The note with it: 1 mM complex, 10-fold excess AA, phosphate buffer pH 7.4, 1% DMF, 20 °C. In kind it is physicochemical. The protocol: The platinum(IV)–succinimide complexes were dissolved in 2% DMF in phosphate buffer (500 mM, pH 7.4) to a final concentration of 2 mM. The solutions were then mixed 1:1 with a 20 mM stock of L-ascorbic acid in phosphate buffer (500 mM, pH 7.4) to obtain final concentrations of 1 mM complex, 10 mM L-ascorbic acid, and 1% DMF. The samples were incubated at 20 °C and measured on a Dionex UltiMate 3000 RS UPLC system with a Waters Acquity UPLC BEH C18 column (3 × 50 mm, pore size 1.7 μm) and absorption detection at 220 nm. Data points were taken at t = 0 and every 30 min for 6 h.

In another data set the target is T1, albumin (Bos taurus, UniProt P02769).
T1 construct: FCS was purchased from Sigma-Aldrich and buffered with 150 mM phosphate buffer (pH 7.4); tissue Sigma-Aldrich; host or cells: fetal calf serum
Nature of the data set: SEC-ICP-MS albumin binding and serum stability in fetal calf serum. In kind it is in vitro ADME. The note with it: FCS + 150 mM phosphate buffer pH 7.4, 37 °C. On the procedure: FCS was purchased from Sigma-Aldrich and buffered with 150 mM phosphate buffer (pH 7.4) to guarantee a stable pH. The maleimide-bearing platinum(IV) complexes were dissolved in 10% DMF in 150 mM phosphate buffer (pH 7.4) to 1 mM and diluted 1:10 in serum to obtain a final concentration of 100 μM. The samples were then incubated in the autosampler at 37 °C for 24 h and analyzed every 1 h. Between each sample, a pure water blank was measured. For SEC–ICP–MS measurements, an Agilent 1260 Infinity system coupled to an Agilent 7800 ICP–MS equipped with a dynamic reaction cell was used. Oxygen (purity 5.5, Messer Austria GmbH, Gumpoldskirchen, Austria) was used as reaction gas.

Where [8] appears, read: with 5 eq. AA, read-out: SKOV3 IC50 values + 5 eq. AA, mean.
The mark [9] stands for this setting: without AA, read-out: SKOV3 IC50 values, mean.
Setting [10] is: 48 h incubation, with 5 equiv AA, read-out: CT26 IC50 values +AA, mean ± SD.
Setting [11] is: 48 h incubation, without AA, read-out: CT26 IC50 values, mean ± SD.
[12] abbreviates: 72 h incubation, with 5 eq. AA, read-out: CT26 IC50 values + 5 eq. AA, mean.
The mark [13] stands for this setting: 72 h incubation, without AA, read-out: CT26 IC50 values, mean.
Where [14] appears, read: 48 h incubation, with 5 equiv AA, read-out: HCT116 IC50 values +AA, mean ± SD.
The mark [15] stands for this setting: 48 h incubation, without AA, read-out: HCT116 IC50 values, mean ± SD.
Where [16] appears, read: 72 h incubation, with 5 eq. AA, read-out: HCT116 IC50 values + 5 eq. AA, mean.
The mark [17] stands for this setting: 72 h incubation, without AA, read-out: HCT116 IC50 values, mean.

T1 sequence (P02769 25-607): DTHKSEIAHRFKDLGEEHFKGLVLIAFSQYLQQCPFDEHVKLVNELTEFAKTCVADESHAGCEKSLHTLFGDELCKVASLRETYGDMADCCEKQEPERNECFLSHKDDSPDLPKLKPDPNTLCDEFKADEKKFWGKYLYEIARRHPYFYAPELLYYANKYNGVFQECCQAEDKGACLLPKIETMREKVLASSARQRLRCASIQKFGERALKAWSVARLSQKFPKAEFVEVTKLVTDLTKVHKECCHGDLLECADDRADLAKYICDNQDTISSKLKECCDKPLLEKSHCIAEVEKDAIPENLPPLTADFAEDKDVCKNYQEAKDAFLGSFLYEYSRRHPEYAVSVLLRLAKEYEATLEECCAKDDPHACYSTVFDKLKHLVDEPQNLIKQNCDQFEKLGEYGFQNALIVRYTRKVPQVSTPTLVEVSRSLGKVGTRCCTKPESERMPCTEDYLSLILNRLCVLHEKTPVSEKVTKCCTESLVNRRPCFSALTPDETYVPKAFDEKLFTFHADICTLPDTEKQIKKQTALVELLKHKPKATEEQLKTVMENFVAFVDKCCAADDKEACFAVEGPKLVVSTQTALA

Consider `Cn1cc(C[C@@H](NC(=O)[O][Pt]2([O]C(=O)CCCCCN3C(=O)CCC3=O)[O]C(=O)C(=O)[O]2)C(=O)O)c2ccccc21.N[C@@H]1CCCC[C@H]1N` [SucEs/IdoCa], for which the IC50 (as a rule, the concentration that gives 50% inhibition) was greater than 100 µM in the data set on human SKOV3 cancer cells (setting [8]); greater than 100 µM in the data set with human SKOV3 cancer cells (setting [9]); 53.1 ± 4.5 µM in the data set on SKOV3 cancer cells; greater than 100 µM in data set [1]; 26.7 ± 0.75 µM in [2] (setting [10]); greater than 100 µM in data set [2] (setting [11]). Besides, the IC50 in data set [2] (setting [12]) is 46 µM; in [2] (setting [13]) it was 90.5 µM; in [3], greater than 100 µM; in data set [5] (setting [14]), 35.4 ± 6.54 µM; in [5] (setting [15]), greater than 100 µM; in data set [5] (setting [16]), 20.8 µM. In addition, the IC50 in [5] (setting [17]) is 82.1 µM; in data set [6], 77.5 µM. Further, the “ratio (IC50 without AA / with AA), CT26” value was no less than 3 in data set [2] (48 h) and 1.97 in [2] (72 h). Further, the “still present as platinum(IV) species after 72 h” value in the data set with SKOV3 cell lysates is on record as roughly 50%. Besides, the “log D7.4” value in [4] was “–2.02”. Besides, the figures for the “ratio (IC50 without AA / with AA), HCT116” value in data set [5] (48 h) and in data set [5] (72 h) were no less than 2.8 and 3.94, respectively. Besides, the “complex intact after 6 h” value in [7] worked out at 90%. Also, the “albumin binding in serum (in words)” value at albumin was “significant binding to albumin (tR ~4 min) could be observed for any of the compounds”.

For the compound `Cn1cc(C[C@@H]([NH3+])C(=O)[O][Pt]2([O]C(=O)CCCCCN3C(=O)CCC3=O)[O]C(=O)C(=O)[O]2)c2ccccc21.N[C@@H]1CCCC[C@H]1N.O=C([O-])C(F)(F)F` [SucEs/IdoEs, (OC-6-44)-[(R)-2-Ammonio-3-(1-methyl-1H-indol-3-yl)propanoato][(1R,2R)-1,2-cyclohexanediamino][6-(2,5-dioxopyrrolidin-1-yl)hexanoato]oxalatoplatinum(IV) Trifluoroacetate], the IC50 in the data set with human SKOV3 cancer cells (setting [8]) is greater than 100 µM; in the data set with human SKOV3 cancer cells (setting [9]) it was greater than 100 µM; in the data set on SKOV3 cancer cells, 19.4 ± 1.2 µM; in data set [1] it was 81.7 µM; in data set [2] (setting [11]), 91.5 ± 3.84 µM; in [2] (setting [12]) it was 18.1 µM. The IC50 in data set [2] (setting [13]) is 44.9 µM; in data set [3], greater than 100 µM; in data set [5] (setting [14]) it was 6.94 ± 0.33 µM; in data set [5] (setting [15]) it was 22.8 ± 1.15 µM; in data set [5] (setting [16]) it was 4.89 µM; in data set [5] (setting [17]) it was 5.45 µM. In data set [6], this compound displayed an IC50 of 44.2 µM. Besides, the “1-MDT release after 72 h” value with SKOV3 cell lysates is listed as roughly 100%. For the same compound, the “log D7.4” value in [4] was “–0.30”. Moreover, the “time until complex completely reduced” value in data set [7] is given as no more than 2 h. The “albumin binding in serum (in words)” value on albumin is recorded as “significant binding to albumin (tR ~4 min) could be observed for any of the compounds”.

Take `Cn1cc(CC([NH3+])C(=O)[O][Pt]23([O]C(=O)NCCCCCN4C(=O)CCC4=O)([NH]C4CCCCC4[NH]2)[O]C(=O)C(=O)[O]3)c2ccccc21.O=C([O-])C(F)(F)F` [SucCa/IdoEs, (OC-6-34)-[(R)-2-Ammonio-3-(1-methyl-1H-indol-3-yl)propanoato][(1R,2R)-1,2-cyclohexanediamino][5-(2,5-dioxo-2,5-dihydro-1H-pyrrolidin-1-yl)pentylcarbamato]oxalatoplatinum(IV) Trifluoroacetate]: the IC50 in the data set on human SKOV3 cancer cells (setting [8]) was greater than 100 µM; with human SKOV3 cancer cells (setting [9]) it was greater than 100 µM; in the data set with SKOV3 cancer cells, 18.4 ± 3 µM; in data set [1], 76.4 µM; in data set [2] (setting [10]), 10.8 ± 1.04 µM; in [2] (setting [11]), 60.1 ± 6.49 µM. Besides, the IC50 in data set [2] (setting [12]) was 16.9 µM; in [2] (setting [13]), 31.9 µM; in data set [3], greater than 100 µM; in data set [5] (setting [14]), 7.36 ± 1.14 µM; in data set [5] (setting [15]), 26 ± 3.21 µM; in data set [5] (setting [16]) it was 5.35 µM. The values for the 50% inhibitory concentration (IC50) in data set [5] (setting [17]) and in [6] were 7.23 µM and 33.2 µM, respectively. Further, the “1-MDT release after 72 h” value in the data set with SKOV3 cell lysates is recorded as roughly 100%. In addition, the “log D7.4” value in data set [4] is reported as “–0.16”. Also, the “time until complex completely reduced” value in [7] was no more than 2 h. For the same compound, the “albumin binding in serum (in words)” value on albumin was “significant binding to albumin (tR ~4 min) could be observed for any of the compounds”.
